# Measured values published in ChEMBL document CHEMBL5291721, “A preclinical secondary pharmacology resource illuminates target-adverse drug reaction associations of marketed drugs” (Nat Commun, 2023).
# Experiments:
# [1] = biological target: 5-hydroxytryptamine receptor 2B (Homo sapiens, UniProt P41595); type: functional, cell-based
# [2] = biological target: T1, 5-hydroxytryptamine receptor 2C (Homo sapiens, UniProt P28335)
# T1 sequence (P28335 whole entry): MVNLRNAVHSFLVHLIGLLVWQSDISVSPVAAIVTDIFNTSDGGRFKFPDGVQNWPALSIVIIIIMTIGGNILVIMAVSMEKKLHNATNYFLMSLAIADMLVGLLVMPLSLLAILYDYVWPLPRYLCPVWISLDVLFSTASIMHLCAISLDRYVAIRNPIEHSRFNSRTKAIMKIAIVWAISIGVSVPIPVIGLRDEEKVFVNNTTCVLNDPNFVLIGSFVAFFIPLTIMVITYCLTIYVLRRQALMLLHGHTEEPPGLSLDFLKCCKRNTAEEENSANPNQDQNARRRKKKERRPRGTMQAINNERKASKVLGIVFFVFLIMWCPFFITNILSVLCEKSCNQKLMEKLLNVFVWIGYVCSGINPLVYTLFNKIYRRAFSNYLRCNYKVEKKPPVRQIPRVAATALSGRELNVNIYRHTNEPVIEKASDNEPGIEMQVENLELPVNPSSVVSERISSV
# [3] = biological target: Gamma-aminobutyric acid receptor subunit alpha-1 (Rattus norvegicus, UniProt P62813); type: functional
# [4] = biological target: T2, 5-hydroxytryptamine receptor 1A (Homo sapiens, UniProt P08908); type: functional, cell-based
# T2 sequence (P08908 whole entry): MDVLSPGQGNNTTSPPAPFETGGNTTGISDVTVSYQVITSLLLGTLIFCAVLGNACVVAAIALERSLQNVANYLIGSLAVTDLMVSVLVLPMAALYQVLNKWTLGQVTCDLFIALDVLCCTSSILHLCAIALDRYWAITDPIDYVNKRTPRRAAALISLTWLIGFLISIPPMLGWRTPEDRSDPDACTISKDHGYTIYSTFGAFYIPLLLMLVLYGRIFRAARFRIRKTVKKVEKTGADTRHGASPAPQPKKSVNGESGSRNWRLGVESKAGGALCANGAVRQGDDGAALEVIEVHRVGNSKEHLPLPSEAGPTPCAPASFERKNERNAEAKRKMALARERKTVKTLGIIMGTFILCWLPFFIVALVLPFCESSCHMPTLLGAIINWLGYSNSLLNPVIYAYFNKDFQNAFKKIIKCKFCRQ
# D(1A) dopamine receptor = D(1A) dopamine receptor (Homo sapiens, UniProt P21728); type: functional, cell-based
# [5] = biological target: T3, Alpha-2A adrenergic receptor (Homo sapiens, UniProt P08913); type: functional, cell-based
# T3 sequence (P08913 whole entry): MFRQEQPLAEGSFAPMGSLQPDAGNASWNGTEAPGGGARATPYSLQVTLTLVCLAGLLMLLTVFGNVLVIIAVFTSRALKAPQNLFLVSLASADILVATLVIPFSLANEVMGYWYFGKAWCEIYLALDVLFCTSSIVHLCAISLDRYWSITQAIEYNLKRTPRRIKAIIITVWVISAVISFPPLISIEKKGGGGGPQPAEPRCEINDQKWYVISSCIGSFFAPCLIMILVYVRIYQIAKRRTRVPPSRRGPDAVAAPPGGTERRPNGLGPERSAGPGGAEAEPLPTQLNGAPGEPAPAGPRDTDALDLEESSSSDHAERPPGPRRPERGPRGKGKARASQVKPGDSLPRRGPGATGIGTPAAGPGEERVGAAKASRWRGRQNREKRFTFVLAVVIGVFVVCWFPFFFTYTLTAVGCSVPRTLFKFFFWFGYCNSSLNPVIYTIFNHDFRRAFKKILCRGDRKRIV
# [6] = biological target: T4, Equilibrative nucleoside transporter 1 (Homo sapiens, UniProt Q99808)
# T4 sequence (Q99808 whole entry): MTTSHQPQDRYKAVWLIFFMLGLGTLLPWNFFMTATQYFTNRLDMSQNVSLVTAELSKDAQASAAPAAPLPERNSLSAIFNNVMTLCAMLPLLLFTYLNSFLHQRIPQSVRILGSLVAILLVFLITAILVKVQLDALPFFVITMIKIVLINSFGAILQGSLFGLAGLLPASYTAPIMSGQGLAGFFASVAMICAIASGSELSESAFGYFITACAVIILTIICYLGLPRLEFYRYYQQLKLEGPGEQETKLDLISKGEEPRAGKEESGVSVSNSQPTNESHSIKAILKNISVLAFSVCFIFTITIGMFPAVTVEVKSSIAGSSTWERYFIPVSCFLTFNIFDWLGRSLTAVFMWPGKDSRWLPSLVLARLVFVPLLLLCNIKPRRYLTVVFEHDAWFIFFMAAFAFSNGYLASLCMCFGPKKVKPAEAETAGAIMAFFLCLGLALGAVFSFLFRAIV
# [7] = biological target: T5, Cholecystokinin receptor type A (Homo sapiens, UniProt P32238)
# T5 sequence (P32238 whole entry): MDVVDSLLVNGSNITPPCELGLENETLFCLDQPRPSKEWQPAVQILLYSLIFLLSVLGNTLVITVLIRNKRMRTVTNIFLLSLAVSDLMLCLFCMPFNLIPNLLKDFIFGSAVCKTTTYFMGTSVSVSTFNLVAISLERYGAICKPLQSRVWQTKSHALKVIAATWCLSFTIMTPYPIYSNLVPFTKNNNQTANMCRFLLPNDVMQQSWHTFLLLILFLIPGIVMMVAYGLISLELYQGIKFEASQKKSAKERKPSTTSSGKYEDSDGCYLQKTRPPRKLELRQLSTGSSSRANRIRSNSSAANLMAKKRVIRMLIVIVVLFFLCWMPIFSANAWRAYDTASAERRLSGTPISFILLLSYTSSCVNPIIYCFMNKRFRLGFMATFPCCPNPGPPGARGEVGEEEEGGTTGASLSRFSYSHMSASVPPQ
# [8] = biological target: Growth hormone secretagogue receptor type 1 (Homo sapiens, UniProt Q92847)
# Adenosine receptor A2a = Adenosine receptor A2a (Homo sapiens, UniProt P29274)
# Also: assay procedure not described here.
# Sequence of Gamma-aminobutyric acid receptor subunit alpha-1 (P62813 whole entry): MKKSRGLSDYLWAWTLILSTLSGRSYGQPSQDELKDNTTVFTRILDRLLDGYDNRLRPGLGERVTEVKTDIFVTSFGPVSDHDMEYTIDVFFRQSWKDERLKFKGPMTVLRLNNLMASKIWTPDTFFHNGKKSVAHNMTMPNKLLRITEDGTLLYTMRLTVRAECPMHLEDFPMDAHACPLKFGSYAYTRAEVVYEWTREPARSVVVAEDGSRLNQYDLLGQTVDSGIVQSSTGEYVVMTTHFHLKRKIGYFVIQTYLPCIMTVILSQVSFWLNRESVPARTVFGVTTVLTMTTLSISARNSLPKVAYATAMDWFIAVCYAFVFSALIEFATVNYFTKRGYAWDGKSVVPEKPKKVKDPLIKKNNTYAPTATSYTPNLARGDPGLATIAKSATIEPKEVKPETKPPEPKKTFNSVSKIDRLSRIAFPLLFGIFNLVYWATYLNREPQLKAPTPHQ
# Sequence of Growth hormone secretagogue receptor type 1 (Q92847 whole entry): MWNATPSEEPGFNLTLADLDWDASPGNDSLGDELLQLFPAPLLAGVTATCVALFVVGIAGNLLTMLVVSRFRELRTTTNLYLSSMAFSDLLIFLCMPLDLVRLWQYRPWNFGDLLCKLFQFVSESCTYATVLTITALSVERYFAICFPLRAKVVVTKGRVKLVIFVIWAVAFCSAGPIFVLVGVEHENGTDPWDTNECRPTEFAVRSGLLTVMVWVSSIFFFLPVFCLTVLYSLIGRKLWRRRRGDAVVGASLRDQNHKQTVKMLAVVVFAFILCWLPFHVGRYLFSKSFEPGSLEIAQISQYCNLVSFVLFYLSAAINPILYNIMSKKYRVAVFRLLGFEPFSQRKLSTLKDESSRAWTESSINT
# Sequence of D(1A) dopamine receptor (P21728 whole entry): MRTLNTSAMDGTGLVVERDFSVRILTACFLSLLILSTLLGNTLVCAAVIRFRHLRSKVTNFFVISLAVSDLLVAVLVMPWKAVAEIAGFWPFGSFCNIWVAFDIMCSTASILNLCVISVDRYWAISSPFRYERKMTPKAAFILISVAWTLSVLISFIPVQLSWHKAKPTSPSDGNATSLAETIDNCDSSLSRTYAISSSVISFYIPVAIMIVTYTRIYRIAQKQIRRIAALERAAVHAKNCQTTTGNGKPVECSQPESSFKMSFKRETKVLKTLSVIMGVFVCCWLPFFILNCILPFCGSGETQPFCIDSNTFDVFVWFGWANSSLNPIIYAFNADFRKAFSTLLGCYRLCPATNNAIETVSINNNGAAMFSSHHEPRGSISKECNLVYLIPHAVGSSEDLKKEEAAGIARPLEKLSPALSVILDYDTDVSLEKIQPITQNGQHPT
# Sequence of 5-hydroxytryptamine receptor 2B (P41595 whole entry): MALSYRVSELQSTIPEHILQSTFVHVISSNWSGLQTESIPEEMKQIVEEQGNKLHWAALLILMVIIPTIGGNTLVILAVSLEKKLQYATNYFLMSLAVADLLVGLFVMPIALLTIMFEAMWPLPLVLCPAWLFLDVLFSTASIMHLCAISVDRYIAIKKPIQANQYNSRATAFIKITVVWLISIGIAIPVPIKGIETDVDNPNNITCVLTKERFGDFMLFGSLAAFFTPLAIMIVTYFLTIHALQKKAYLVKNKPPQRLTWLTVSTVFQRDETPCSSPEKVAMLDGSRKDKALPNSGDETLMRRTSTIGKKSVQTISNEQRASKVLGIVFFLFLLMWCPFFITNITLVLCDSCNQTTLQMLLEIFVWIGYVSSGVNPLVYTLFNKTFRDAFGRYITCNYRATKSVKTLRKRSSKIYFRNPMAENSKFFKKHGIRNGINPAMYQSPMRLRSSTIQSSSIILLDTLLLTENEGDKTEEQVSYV
# Sequence of Adenosine receptor A2a (P29274 whole entry): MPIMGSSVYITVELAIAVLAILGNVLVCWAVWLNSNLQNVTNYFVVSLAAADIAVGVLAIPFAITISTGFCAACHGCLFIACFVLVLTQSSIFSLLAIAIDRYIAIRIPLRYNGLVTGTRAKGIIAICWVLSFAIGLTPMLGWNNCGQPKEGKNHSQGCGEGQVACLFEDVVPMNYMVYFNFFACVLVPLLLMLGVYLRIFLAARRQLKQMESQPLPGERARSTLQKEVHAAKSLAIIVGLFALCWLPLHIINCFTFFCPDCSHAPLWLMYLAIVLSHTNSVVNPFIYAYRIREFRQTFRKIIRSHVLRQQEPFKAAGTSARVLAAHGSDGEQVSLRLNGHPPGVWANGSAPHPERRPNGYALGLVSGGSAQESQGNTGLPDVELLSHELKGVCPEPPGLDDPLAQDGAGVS
SMILES,AC50 [1] [µM],AC50 [2] [µM],AC50 [3] [µM],AC50 [4] [µM],AC50 (D(1A) dopamine receptor) [µM],AC50 [5] [µM],AC50 [6] [µM],AC50 [7] [µM],AC50 [8] [µM],AC50 (Adenosine receptor A2a) [µM]
C#CCN(C)Cc1ccccc1 [PARGYLINE],> 30,> 30,> 30,> 30,> 30,> 30,,,,
CC(C)(CO)c1cc2cc(NC(=O)C3(c4ccc5c(c4)OC(F)(F)O5)CC3)c(F)cc2n1C[C@@H](O)CO [TEZACAFTOR],> 10,> 30,> 30,> 30,> 30,> 30,> 30,> 30,> 30,> 30
CCN(CC)CCn1c(=O)c(Cc2ccc(OC)cc2)nc2ccccc21 [CAROVERINE],> 30,27,19,> 30,> 30,> 30,> 30,> 30,6.47,> 30
CC[N+](CC)(CCNC(=O)C(=O)NCC[N+](CC)(CC)Cc1ccccc1Cl)Cc1ccccc1Cl [AMBENONIUM],> 30,> 30,> 30,> 30,> 30,> 30,,> 30,> 30,> 30
CC(C)/N=c1\cc2n(-c3ccc(Cl)cc3)c3ccccc3nc-2cc1Nc1ccc(Cl)cc1 [CLOFAZIMINE],> 30,> 30,20,> 30,> 30,> 30,,> 30,0.92,> 30
NCCCCCC(=O)O [AMINOCAPROIC ACID],> 10,> 30,> 10,> 10,> 10,> 10,> 30,> 10,> 10,> 10
CCN(CCO)CCCC(C)Nc1ccnc2cc(Cl)ccc12 (stereo not drawn) [HYDROXYCHLOROQUINE],> 10,> 30,> 10,> 10,> 10,> 10,> 10,> 10,> 10,> 10
NCCCNCCSP(=O)(O)O [AMIFOSTINE],> 30,> 30,> 30,> 30,> 30,> 30,,> 30,> 30,> 30
CC(C)C[C@H](NC(=O)[C@H](Cc1ccccc1)NC(=O)c1cnccn1)B(O)O [BORTEZOMIB],> 30,> 30,> 30,> 30,> 30,> 30,> 30,> 30,> 30,> 30
CC(=O)SCC(Cc1ccccc1)C(=O)NCC(=O)OCc1ccccc1 (stereo not drawn) [RACECADOTRIL],> 30,> 30,> 30,> 30,> 30,> 30,> 30,> 30,> 30,> 30
OCCOCCN1CCN(C(c2ccccc2)c2ccc(Cl)cc2)CC1 (stereo not drawn) [HYDROXYZINE],2.2,> 30,> 10,> 10,> 10,> 10,> 30,> 30,> 30,> 30
CN1CC2c3ccccc3Oc3ccc(Cl)cc3C2C1 (stereo not drawn) [ASENAPINE],0.0013,0.0006,,> 10,> 30,0.079,> 30,> 30,24,> 30
CS(=O)(=O)Nc1ccc([N+](=O)[O-])cc1Oc1ccccc1 [NIMESULIDE],,26,> 30,> 30,> 30,> 30,15,6.2,30,20
CC(C)NCC(O)COc1ccc(CC(N)=O)cc1 (stereo not drawn) [ATENOLOL],,> 30,,> 30,,> 30,> 30,> 30,> 30,> 30
CN(C)CCCC1(c2ccc(F)cc2)OCc2cc(C#N)ccc21 (stereo not drawn) [CITALOPRAM],0.678,,> 10,> 10,,> 10,> 30,> 30,> 30,> 30
CN(C)CCC=C1c2ccccc2CCc2ccccc21 [AMITRIPTYLINE],,0.15,> 10,> 10,> 10,9.1,> 30,> 30,> 30,> 30
CC(=O)NC[C@H]1CN(c2ccc(N3CCOCC3)c(F)c2)C(=O)O1 [LINEZOLID],,> 30,> 30,> 30,,> 30,> 30,,> 30,> 30
O=c1[nH]cc(F)c(=O)[nH]1 [FLUOROURACIL],,,,,,,> 30,> 30,> 30,> 30
Cc1ccc(C(C)C)c(O)c1 [THYMOL],,170,,,,,,,,
C[C@@H](O)[C@H]1C(=O)N2C(C(=O)O)=C(SCCN=CN)C[C@H]12 [IMIPENEM ANHYDROUS],> 300,> 300,,> 300,> 300,> 300,> 300,> 300,> 300,> 300
O=C(Cc1cccs1)N[C@@H]1C(=O)N2C(C(=O)[O-])=C(C[n+]3ccccc3)CS[C@H]12 [CEPHALORIDINE],> 30,> 30,> 30,> 30,> 30,> 30,,,,
O=C1[C@@H]2[C@H]3CC[C@H](C3)[C@@H]2C(=O)N1C[C@@H]1CCCC[C@H]1CN1CCN(c2nsc3ccccc23)CC1 [LURASIDONE],0.071,25,> 30,,,,> 30,,> 30,> 30
